# ChEMBL document CHEMBL1156596, “Overcoming undesirable CYP1A2 inhibition of pyridylnaphthalene-type aldosterone synthase inhibitors: influence of heteroaryl derivatization on potency and selectivity” (J Med Chem, 2008)
# What was measured:
# Homo sapiens = species: Homo sapiens; test: Selectivity ratio of IC50 for human CYP11B1 to IC50 for human CYP11B2
# CYP17 = molecular target: T1, CYP17 (Homo sapiens, UniProt P05093); test: Inhibition of human recombinant CYP17 expressed in Escherichia coli at 2 uM
# T1 sequence (P05093 whole entry): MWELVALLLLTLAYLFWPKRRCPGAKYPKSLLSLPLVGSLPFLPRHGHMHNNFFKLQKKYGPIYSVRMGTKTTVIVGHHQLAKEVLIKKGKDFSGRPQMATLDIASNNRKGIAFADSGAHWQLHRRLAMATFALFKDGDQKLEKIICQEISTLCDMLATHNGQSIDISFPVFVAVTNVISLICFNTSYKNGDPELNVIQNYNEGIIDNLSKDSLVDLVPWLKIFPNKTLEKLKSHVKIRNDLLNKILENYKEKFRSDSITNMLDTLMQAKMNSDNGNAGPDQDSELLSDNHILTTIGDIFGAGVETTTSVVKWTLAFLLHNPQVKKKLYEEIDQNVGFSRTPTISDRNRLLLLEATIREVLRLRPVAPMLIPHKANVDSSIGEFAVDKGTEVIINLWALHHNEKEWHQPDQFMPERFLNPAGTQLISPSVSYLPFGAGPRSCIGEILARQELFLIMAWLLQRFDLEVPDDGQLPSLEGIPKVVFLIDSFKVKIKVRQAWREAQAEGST
# Cytochrome P450 2B6 = molecular target: T2, Cytochrome P450 2B6 (Homo sapiens, UniProt P20813); test: Inhibition of human recombinant CYP2B6 expressed in insect microsomes; format: ADME, Microsome
# T2 sequence (P20813 whole entry): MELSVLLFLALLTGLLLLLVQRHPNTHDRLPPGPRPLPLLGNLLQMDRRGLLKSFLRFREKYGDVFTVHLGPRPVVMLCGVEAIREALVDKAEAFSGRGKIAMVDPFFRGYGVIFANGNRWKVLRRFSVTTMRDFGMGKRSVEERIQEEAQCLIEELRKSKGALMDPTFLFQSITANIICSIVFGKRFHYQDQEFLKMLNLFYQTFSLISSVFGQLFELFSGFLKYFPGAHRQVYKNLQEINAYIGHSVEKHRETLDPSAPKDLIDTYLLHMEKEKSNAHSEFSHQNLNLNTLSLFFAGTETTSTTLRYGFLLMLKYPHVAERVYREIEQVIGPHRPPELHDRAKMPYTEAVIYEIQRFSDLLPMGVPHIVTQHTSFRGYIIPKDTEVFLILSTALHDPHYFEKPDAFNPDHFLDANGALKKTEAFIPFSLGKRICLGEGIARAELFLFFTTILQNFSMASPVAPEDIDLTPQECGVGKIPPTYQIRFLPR
# Cytochrome P450 2C9 = Cytochrome P450 2C9 (Homo sapiens, UniProt P11712); test: Inhibition of human recombinant CYP2C9 expressed in insect microsomes; format: ADME, Microsome
# Cytochrome P450 2C19 = Cytochrome P450 2C19 (Homo sapiens, UniProt P33261); test: Inhibition of human recombinant CYP2C19 expressed in insect microsomes; format: ADME, Microsome
# [1] = Terminal half life in Wistar rat at 5 mg/kg, po; format: ADME, organism-based; design: dose 5 mg/kg, route oral; conditions: in vivo
# [2] = Cmax in Wistar rat at 5 mg/kg, po; format: ADME, organism-based; design: dose 5 mg/kg, route oral; conditions: in vivo
# [3] = Plasma concentration in Wistar rat plasma at 5 mg/kg, po after 1 hr; format: ADME, organism-based; design: dose 5 mg/kg, route oral
# [4] = Plasma concentration in Wistar rat plasma at 5 mg/kg, po after 2 hrs; format: ADME, organism-based; design: dose 5 mg/kg, route oral
# [5] = Plasma concentration in Wistar rat plasma at 5 mg/kg, po after 8 hrs; format: ADME, organism-based; design: dose 5 mg/kg, route oral
# [6] = Plasma concentration in Wistar rat plasma at 5 mg/kg, po after 24 hrs; format: ADME, organism-based; design: dose 5 mg/kg, route oral
# [7] = molecular target: T3, Cytochrome P450 11B2, mitochondrial (Homo sapiens, UniProt P19099)
# T3 sequence (P19099 whole entry): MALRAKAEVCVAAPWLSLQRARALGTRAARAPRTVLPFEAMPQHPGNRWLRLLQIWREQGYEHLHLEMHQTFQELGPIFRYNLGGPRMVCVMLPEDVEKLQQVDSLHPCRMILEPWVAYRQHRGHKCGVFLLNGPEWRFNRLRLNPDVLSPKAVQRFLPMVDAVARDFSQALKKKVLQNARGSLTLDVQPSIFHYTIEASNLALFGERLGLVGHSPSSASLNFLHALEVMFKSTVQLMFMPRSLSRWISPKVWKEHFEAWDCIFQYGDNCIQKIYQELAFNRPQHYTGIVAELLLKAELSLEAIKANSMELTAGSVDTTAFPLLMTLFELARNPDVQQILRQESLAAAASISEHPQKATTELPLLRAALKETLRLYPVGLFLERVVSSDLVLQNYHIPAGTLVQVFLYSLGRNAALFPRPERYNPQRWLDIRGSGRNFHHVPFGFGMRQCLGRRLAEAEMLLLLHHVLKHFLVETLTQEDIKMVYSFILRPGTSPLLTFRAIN
# [8] = molecular target: T4, Cytochrome P450 11B1, mitochondrial (Homo sapiens, UniProt P15538)
# T4 sequence (P15538 whole entry): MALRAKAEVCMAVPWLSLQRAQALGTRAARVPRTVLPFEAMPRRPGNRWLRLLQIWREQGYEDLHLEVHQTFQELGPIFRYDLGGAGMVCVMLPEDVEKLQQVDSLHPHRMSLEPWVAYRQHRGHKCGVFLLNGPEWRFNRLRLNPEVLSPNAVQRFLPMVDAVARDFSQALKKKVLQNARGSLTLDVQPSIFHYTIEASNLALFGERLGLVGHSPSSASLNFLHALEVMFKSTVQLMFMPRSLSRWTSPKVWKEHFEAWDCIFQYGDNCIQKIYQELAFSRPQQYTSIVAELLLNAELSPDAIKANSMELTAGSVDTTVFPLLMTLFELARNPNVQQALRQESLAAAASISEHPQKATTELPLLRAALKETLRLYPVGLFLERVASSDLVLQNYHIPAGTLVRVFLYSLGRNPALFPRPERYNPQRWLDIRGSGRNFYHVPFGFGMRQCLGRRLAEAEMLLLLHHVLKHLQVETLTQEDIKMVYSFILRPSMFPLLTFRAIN
# Chain of Cytochrome P450 2C9 (P11712 whole entry): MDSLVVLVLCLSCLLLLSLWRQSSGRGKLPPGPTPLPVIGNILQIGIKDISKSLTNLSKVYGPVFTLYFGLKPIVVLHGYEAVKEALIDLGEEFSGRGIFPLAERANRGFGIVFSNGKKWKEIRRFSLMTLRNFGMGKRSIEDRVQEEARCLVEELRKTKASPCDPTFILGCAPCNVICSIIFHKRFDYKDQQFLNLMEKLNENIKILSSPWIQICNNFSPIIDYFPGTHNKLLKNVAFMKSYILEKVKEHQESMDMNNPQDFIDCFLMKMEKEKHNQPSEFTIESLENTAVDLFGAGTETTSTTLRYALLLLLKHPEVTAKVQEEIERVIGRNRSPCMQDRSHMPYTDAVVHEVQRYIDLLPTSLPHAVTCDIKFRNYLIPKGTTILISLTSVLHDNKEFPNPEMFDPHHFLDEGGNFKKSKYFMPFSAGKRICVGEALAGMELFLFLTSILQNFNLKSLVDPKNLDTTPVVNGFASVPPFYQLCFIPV
# Chain of Cytochrome P450 2C19 (P33261 whole entry): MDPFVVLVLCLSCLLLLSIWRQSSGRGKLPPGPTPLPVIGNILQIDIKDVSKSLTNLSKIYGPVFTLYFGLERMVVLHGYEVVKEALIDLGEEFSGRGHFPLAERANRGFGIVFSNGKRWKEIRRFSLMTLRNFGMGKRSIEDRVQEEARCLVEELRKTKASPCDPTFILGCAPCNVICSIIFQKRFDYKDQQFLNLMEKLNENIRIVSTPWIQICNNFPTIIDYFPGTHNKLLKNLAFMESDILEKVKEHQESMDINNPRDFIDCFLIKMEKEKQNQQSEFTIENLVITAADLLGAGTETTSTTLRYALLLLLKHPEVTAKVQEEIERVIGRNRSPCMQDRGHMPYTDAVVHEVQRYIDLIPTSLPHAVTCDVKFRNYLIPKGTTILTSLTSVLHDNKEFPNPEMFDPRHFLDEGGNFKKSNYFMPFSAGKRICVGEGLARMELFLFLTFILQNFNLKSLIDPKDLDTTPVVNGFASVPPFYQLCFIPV
structure (smiles),measurement,setting,value
COc1ccc2cc(-c3cncc4ccccc34)ccc2c1,Ratio IC50,Homo sapiens,112
same,inhibition at 2 µM,CYP17,39%
same,IC50,Cytochrome P450 2B6,16500 nM
same,IC50,Cytochrome P450 2C9,1270 nM
same,IC50,Cytochrome P450 2C19,3540 nM
same,half-life,[1],3.2 h
same,Cmax,[2],81 ng/mL
same,concentration at 1 h,[3],34.9 ng/mL
same,concentration at 2 h,[4],55.8 ng/mL
same,concentration at 8 h,[5],34.6 ng/mL
same,concentration at 24 h,[6],1.28 ng/mL
same,IC50,[7],0.6 nM
same,IC50,[8],67 nM
